Calls of active or inactive are those of the source. The rule behind the calls is not given here.
What was measured:
[1] = test system: HeLa; assay: Antiproliferative activity against human HeLa cells assessed as cell growth inhibition incubated for 48 hrs by MTT assay; assay type: functional, cell-based
[2] = biological target: T1, Tyrosine-protein kinase JAK2 (Homo sapiens, UniProt O60674); assay: Inhibition of JAK2 (unknown origin) using Poly-(Glu,Tyr 4:1) peptide as substrate at 1 uM in presence of ATP by ADP-Glo reagent based assay relative to control
T1 sequence (O60674 whole entry): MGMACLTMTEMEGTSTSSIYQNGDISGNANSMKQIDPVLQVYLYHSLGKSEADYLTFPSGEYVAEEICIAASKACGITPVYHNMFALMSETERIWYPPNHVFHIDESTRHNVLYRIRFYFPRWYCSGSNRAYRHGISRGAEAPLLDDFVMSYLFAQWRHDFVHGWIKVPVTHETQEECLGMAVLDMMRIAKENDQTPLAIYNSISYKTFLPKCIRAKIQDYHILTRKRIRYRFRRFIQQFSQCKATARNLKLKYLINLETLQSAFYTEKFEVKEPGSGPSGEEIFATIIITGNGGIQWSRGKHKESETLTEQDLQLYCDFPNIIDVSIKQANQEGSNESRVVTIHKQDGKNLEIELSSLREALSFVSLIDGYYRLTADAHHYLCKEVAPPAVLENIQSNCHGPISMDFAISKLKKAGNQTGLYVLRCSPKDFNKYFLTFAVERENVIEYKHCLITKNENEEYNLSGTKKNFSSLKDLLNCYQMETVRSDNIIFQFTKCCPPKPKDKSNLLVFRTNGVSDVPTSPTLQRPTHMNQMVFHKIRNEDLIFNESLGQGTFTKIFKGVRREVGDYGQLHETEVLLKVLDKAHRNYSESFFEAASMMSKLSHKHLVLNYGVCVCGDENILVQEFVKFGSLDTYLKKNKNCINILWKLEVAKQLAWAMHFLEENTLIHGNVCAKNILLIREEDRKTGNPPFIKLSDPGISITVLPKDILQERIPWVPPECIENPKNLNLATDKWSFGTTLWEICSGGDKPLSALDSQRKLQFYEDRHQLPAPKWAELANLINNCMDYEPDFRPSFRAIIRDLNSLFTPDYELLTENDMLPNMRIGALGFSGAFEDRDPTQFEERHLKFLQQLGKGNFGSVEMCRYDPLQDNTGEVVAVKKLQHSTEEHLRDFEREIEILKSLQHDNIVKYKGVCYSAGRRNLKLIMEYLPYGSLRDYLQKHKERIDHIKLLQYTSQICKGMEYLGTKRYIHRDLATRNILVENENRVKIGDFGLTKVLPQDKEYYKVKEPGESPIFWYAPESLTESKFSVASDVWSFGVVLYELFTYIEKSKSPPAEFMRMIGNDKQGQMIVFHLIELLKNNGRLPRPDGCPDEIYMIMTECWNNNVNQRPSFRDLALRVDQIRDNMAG

[3] = Metabolic stability in mouse liver microsomes assessed as half life incubated for 10 mins in presence of NADPH by LC-MS/MS analysis; assay type: ADME, Microsome
[4] = biological target: T1, Tyrosine-protein kinase JAK2; assay: Inhibition of JAK2 (unknown origin) using Poly-(Glu,Tyr 4:1) peptide as substrate in presence of ATP by ADP-Glo reagent based assay
[5] = test system: A2780; assay: Antiproliferative activity against human A2780 cells assessed as cell growth inhibition incubated for 48 hrs by MTT assay; assay type: functional, cell-based; settings: A2780, 48 h
[6] = Antiproliferative activity against human A549/DDP cells assessed as cell growth inhibition incubated for 48 hrs by MTT assay; assay type: functional, cell-based
[7] = Resistance index, ratio of IC50 for antiproliferative activity against human A2780T cells to IC50 for antiproliferative activity against human A2780 cells; assay type: functional
[8] = test system: HT-29; assay: Antiproliferative activity against human HT-29 cells assessed as cell growth inhibition incubated for 48 hrs by MTT assay; assay type: functional, cell-based; settings: HT-29, 48 h
[9] = Half life in CD-1 mouse at 1 mg/kg,iv measured upto 24 hrs by HPLC-MS/MS analysis; assay type: ADME, organism-based; settings: in vivo
[10] = AUC (0 to infinity) in CD-1 mouse at 10 mg/kg,ip measured upto 24 hrs by HPLC-MS/MS analysis; assay type: ADME, organism-based; design: time < 24 hrs, dose 10 mg/kg, route ip; settings: in vivo
[11] = Half life in CD-1 mouse at 10 mg/kg,ip measured upto 24 hrs by HPLC-MS/MS analysis; assay type: ADME, organism-based; settings: in vivo
[12] = Tmax in CD-1 mouse at 10 mg/kg,ip measured upto 24 hrs by HPLC-MS/MS analysis; assay type: ADME, organism-based; settings: in vivo
[13] = AUC (0 to t) in CD-1 mouse assessed as AUC (0 to t) of metabolite at 10 mg/kg,ip measured upto 24 hrs by HPLC-MS/MS analysis; assay type: ADME, organism-based; design: dose 10 mg/kg, time < 24 hrs, route ip; settings: in vivo
[14] = test system: A549; assay: Induction of cell cycle arrest in human A549 cells assessed as accumulation of cells at G2/M phase at 10 nM incubated for 24 hrs by PI/RNase staining based flow cytometry analysis; assay type: functional
[15] = test system: A549; assay: Induction of apoptosis in human A549 cells assessed as viable cells at 5 nM incubated for 24 hrs by Annexin V-FITC/PI staining based flow cytometry (reference value: 93 %); assay type: functional; settings: read-out: Activity
[16] = test system: A549; assay: Induction of apoptosis in human A549 cells assessed as viable cells at 10 nM incubated for 24 hrs by Annexin V-FITC/PI staining based flow cytometry (reference value: 93 %); assay type: functional; settings: read-out: Activity
[17] = test system: A549; assay: Induction of apoptosis in human A549 cells assessed as viable cells at 20 nM incubated for 24 hrs by Annexin V-FITC/PI staining based flow cytometry (reference value: 93 %); assay type: functional; settings: read-out: Activity
[18] = test system: A549; assay: Induction of apoptosis in human A549 cells assessed as necrotic cells at 10 nM incubated for 24 hrs by Annexin V-FITC/PI staining based flow cytometry (reference value: 0.67 %); assay type: functional
[19] = test system: A549; assay: Induction of apoptosis in human A549 cells assessed as necrotic cells at 20 nM incubated for 24 hrs by Annexin V-FITC/PI staining based flow cytometry (reference value: 0.67 %); assay type: functional
[20] = test system: A549; assay: Induction of apoptosis in human A549 cells assessed as reduction of mitochondrial membrane potential incubated for 16 hrs by JC-1 staining based flow cytometry analysis; assay type: functional, cell-based
[21] = test system: A549; assay: Induction of mitochondrial membrane potential loss in human A549 cells by measuring red fluorescence at 10 nM incubated for 16 hrs by JC-1 staining based flow cytometry analysis (reference value: 99.3 %); assay type: functional
[22] = test system: A549; assay: Induction of mitochondrial membrane potential loss in human A549 cells by measuring green fluorescence at 10 nM incubated for 16 hrs by JC-1 staining based flow cytometry analysis (reference value: 0.7 %); assay type: functional
[23] = test system: A549; assay: Antitumor activity against human A549 cells xenografted in Balb/c mouse assessed as increase in tumor necrotic cells at 50 mg/kg,ip administration measured after 31 days by Hematoxylin-eosin staining based microscopy; assay type: functional, organism-based; settings: time 31.0 day
[24] = Toxicity in Balb/c mouse xenografted with human A549 cells assessed as effect on liver morphology at 50 mg/kg,ip administration measured after 31 days by Hematoxylin-eosin staining based microscopy; assay type: organism-based; settings: in vivo, 744 h, time 31 day
[25] = Acute toxicity in C57BL/6 mouse assessed as maximum tolerated dose administered intravenously for 5 consecutive days; settings: in vivo, route iv

SMILES: COc1cc(-c2nccc3nc(Nc4cccc5[nH]ccc45)nn23)cc(OC)c1OC
- IC50 [1]: 15 nM
- inhibition [2]: 97%
- half-life [3]: 0.362 h
- IC50 [4]: 74 nM
- IC50 [5]: 75 nM
- IC50 [6]: 36 nM
- Ratio IC50 [7]: 0.3
- IC50 [8]: 27 nM
- half-life [9]: 6 h
- AUC(0-inf) [10]: 580 ng·h/mL
- half-life [11]: 5.5 h
- Tmax [12]: 0.5 h
- AUCt [13]: 2534.7 ng·h/mL
- Activity [14]: 32.9%
- viability at 0.005 µM [15]: 90.5%
- viability at 0.01 µM [16]: 55.4%
- viability at 0.02 µM [17]: 9.34%
- Activity [18]: 2.6%
- Activity [19]: 5.26%
- Activity [20]: Dose-Dependent Effect
- Activity [21]: 73.6%
- Activity [22]: 15.4%
- Activity [23]: Active
- Activity [24]: Non-Toxic
- MTD at 5 days [25]: 100 mg/kg
